From patent US20200405752A1, “ANTITUMOR AGENT, ANTITUMOR EFFECT ENHANCER, AND ANTITUMOR KIT” (FUJIFILM Corporation, priority 2018, published 2020)

Tested on: human ovarian cancer cell line ES-2
Assay: Cell viability (CellTiter Glo) of ES-2 in combination with cisplatin or carboplatin
Type: cell-based
Conditions: for CI: ES-2 Cell; for viability at 0.001 µM / viability at 0.003 µM / viability at 0.01 µM / viability at 0.03 µM / viability at 0.1 µM / viability at 0.3 µM / viability at 1 µM / viability at 3 µM / viability at 10 µM / IC50: Homo sapiens; for viability at 0.001 µM / viability at 0.003 µM / viability at 0.01 µM / viability at 0.03 µM / viability at 0.1 µM / viability at 0.3 µM / viability at 1 µM / viability at 3 µM / viability at 10 µM: 72 h, 3 days; for viability at 0.001 µM: test substance 1 nM; for viability at 0.003 µM: test substance 3 nM; for viability at 0.01 µM: test substance 10 nM; for viability at 0.03 µM: test substance 30 nM; for viability at 0.1 µM: test substance 100 nM; for viability at 0.3 µM: test substance 300 nM; for viability at 1 µM: test substance 1000 nM; for viability at 3 µM: test substance 3000 nM; for viability at 10 µM: test substance 10000 nM
Description: On the combinational effect of the embodiment of the invention, the results of evaluation using a combination index (CI) which is a quantitative index of the combinational effect are shown. The CI can be calculated by the following equation according to Cancer Research, 2010, Vol. 70, pp. 440 to 446.
That is, in a case where the drugs to be used in combination are drug 1 and drug 2, the CI at a certain drug concentration is
CI={(cell viability in case of using drug 1 and drug 2 in combination)/100}/{[(cell viability in case of using drug 1)/100]×[(cell viability in case of using drug 2)/100]}
Evaluation of antitumor activity against human ovarian cancer cell lines ES-2 and SK-OV-3 in combination with cisplatin and carboplatin
Furthermore, the antitumor activity against human ovarian cancer-derived cell lines ES-2 and SK-OV-3 in combination with cisplatin and carboplatin was evaluated in the same manner as in Test Example 1.
Gemcitabine, cisplatin, carboplatin, and methanesulfonate of Compound A were used as test substances.
Gemcitabine hydrochloride (manufactured by Plantex Co., Ltd.) dissolved in DMSO was used as gemcitabine. Cisplatin (Cat. #039-20091, manufactured by Wako Pure Chemical Industries, Ltd.) and carboplatin (Cat. #C2043, manufactured by Tokyo Chemical Industry Co., Ltd.), each of which dissolved in McCoy's 5a medium (Cat. #16600-082, manufactured by Thermo Fisher Scientific Inc.) supplemented with 1% serum (Cat. #10437-028, manufactured by Thermo Fisher Scientific Inc.), were used as cisplatin and carboplatin, respectively.
Human ovarian cancer cell line ES-2 and SK-OV-3 cells were subcultured in 10% serum-supplemented medium. During this test, all cell cultures were carried out in a CO2 incubator (set to 37° C. and 5% CO2, saturated with water vapor). ES-2 cells were diluted with 10% serum-supplemented medium to a cell density of 10000 cells/well/100 μL and SK-OV-3 cells were diluted with 10% serum-supplemented medium to a cell density of 15000 cells/well/100 μL, and then seeded on a 96-well plate. On the next day, the culture supernatant of each well was discarded, followed by washing twice with 150 μL of 1% serum-supplemented medium, and 100 μL of 1% serum-supplemented medium was added thereto, followed by culturing for 3 days.
The methanesulfonate of Compound A and gemcitabine were dissolved in DMSO to prepare 100 mmol/L DMSO solutions thereof. The thus-prepared DMSO solutions were diluted sequentially with DMSO to prepare DMSO solutions having a final treatment concentration of 1000-fold dilution. Cisplatin and carboplatin were dissolved in 1% serum-supplemented medium to prepare a cisplatin solution 60 μmol/L and a carboplatin solution 600 μmol/L, respectively. The DMSO diluted solutions of Compound A and gemcitabine were diluted with the cisplatin solution (60 μmol/L) or the Carboplatin solution (600 μmol/L) to prepare treatment liquids having a final treatment concentration of 6-fold dilution. Compound A and gemcitabine were used with a maximum concentration of 10 μmol/L at a common ratio of 1/3 and 9 concentrations in combination with cisplatin or Carboplatin.
20 μL of Compound A or gemcitabine diluted with the cisplatin solution (60 μmol/L) or the Carboplatin solution (600 μmol/L) was added to each well. In addition, a group in which only a solvent containing no drug was added to wells in which cells were seeded (positive control), and a group in which only a solvent containing no drug was added to wells containing only a medium (negative control) were provided. All groups were set to n=3 well.
The cells were cultured for 3 days after the addition of the drug, and the cell viability was evaluated using a CellTiter Glo (registered trademark) Reagent (Cat. #G7570, manufactured by Promega Corporation) with the intracellular ATP level as an index. […]

[1] = ES-2, used in combination with cisplatin (10 μmol/L, Table 3)
[2] = ES-2, with carboplatin 100 μmol/L
[3] = ES-2, used in combination with carboplatin (100 μmol/L, Table 6)

Structure (SMILES)	CI (combination with Carboplatin)	CI (combination with Cisplatin)	viability at 0.001 µM [2]	viability at 0.003 µM [2]	viability at 0.01 µM [2]	viability at 0.03 µM [2]	viability at 0.1 µM [2]	viability at 0.3 µM [2]	viability at 1 µM [2]	viability at 3 µM [2]	viability at 10 µM [2]	viability at 0.001 µM (ES-2, with cisplatin 10 μmol/L)	viability at 0.003 µM (ES-2, with cisplatin 10 μmol/L)	viability at 0.01 µM (ES-2, with cisplatin 10 μmol/L)	viability at 0.03 µM (ES-2, with cisplatin 10 μmol/L)	viability at 0.1 µM (ES-2, with cisplatin 10 μmol/L)	viability at 0.3 µM (ES-2, with cisplatin 10 μmol/L)	viability at 1 µM (ES-2, with cisplatin 10 μmol/L)	viability at 3 µM (ES-2, with cisplatin 10 μmol/L)	viability at 10 µM (ES-2, with cisplatin 10 μmol/L)	also measured
Nc1ccn([C@@H]2O[C@H](CO)[C@@H](O)C2(F)F)c(=O)n1 [Gemcitabine]	0.9	1.1	76%	74%	71%	71%	72%	71%	69%	62%	48%	74%	78%	78%	79%	79%	79%	74%	65%	50%	IC50 value [1]: could not be calculated; IC50 [3]: ≥ 10000 nM
Nc1ccn([C@@H]2S[C@H](CO)[C@@H](O)[C@@H]2F)c(=O)n1 [Compound A, 1-(2-deoxy-2-fluoro-4-thio-β-D-arabinofuranosyl)cytosine]	0.4	0.3	73%	70%	69%	57%	36%	28%	24%	22%	21%	78%	78%	77%	68%	37%	26%	23%	23%	21%	IC50 [3]: 46 nM; IC50 [1]: 63.2 nM
